Columns and labels:
giant foxtail = test: Test C preemergence; assay type: in vivo, Setaria faberii; conditions: for Foxtail, Giant plant response rating: preemergence; for Plant response rating, Foxtail, Giant: Preemergence, 31 g ai/ha, scale 0 to 100, 0 no effect, 100 complete control
Method in brief: (§1)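 Seeds were sown in loam–sand blend and sprayed preemergence, while plants at 1- to 4-leaf stage (2–18 cm) in peat-based medium received postemergence sprays; test chemicals were formulated in a non-phytotoxic solvent with surfactant. After 13–15 days in a greenhouse, injury was rated visually against controls, 0 (no effect) to 100 (complete control).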

corn = test: Test C preemergence; assay type: in vivo, Zea mays; conditions: for Corn plant response rating: preemergence; for Plant response rating, Corn: Preemergence, 31 g ai/ha, scale 0 to 100, 0 no effect, 100 complete control
Method in brief: as §1

barnyardgrass [1] = test: Test A postemergence; assay type: in vivo, Echinochloa crus-galli
Method in brief: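 Visual 0–100 rating (100 = complete control) taken about 10 d post-treatment relative to untreated checks. Preemergence: directed soil spray on sown loam/sand pots. Postemergence: seedlings 2–10 cm, 1–2 leaf. Non-phytotoxic solvent formulation with surfactant.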

barnyardgrass [2] = test: Test C postemergence; assay type: in vivo, Echinochloa crus-galli; conditions: for Plant response rating (0 to 100), Barnyardgrass: 16 g ai/ha, 0 is no effect, 100 is complete control; for Barnyardgrass plant response rating: 31 g ai/ha, 13 to 15 days; for Barnyardgrass plant response rating / Plant response rating, Barnyardgrass: scale 0 to 100 (0 no effect, 100 complete control)
Method in brief: as §1

waterhemp = test: Test C postemergence; assay type: in vivo, Amaranthus rudis; conditions: for Plant response rating (0 to 100), Waterhemp: 16 g ai/ha, 0 is no effect, 100 is complete control; for Waterhemp plant response rating: 31 g ai/ha, 13 to 15 days; for Waterhemp plant response rating / Plant response rating, Waterhemp: scale 0 to 100 (0 no effect, 100 complete control)
Method in brief: as §1

Italian ryegrass = test: Test C postemergence; assay type: in vivo, Lolium multiflorum; conditions: for Plant response rating (0 to 100), Ryegrass, Italian: 16 g ai/ha, 0 is no effect, 100 is complete control; for Ryegrass, Italian plant response rating: 31 g ai/ha, 13 to 15 days; for Ryegrass, Italian plant response rating / Plant response rating, Ryegrass, Italian: scale 0 to 100 (0 no effect, 100 complete control)
Method in brief: as §1

pigweed = test: Test C postemergence; assay type: in vivo, Amaranthus retroflexus; conditions: for Plant response rating (0 to 100), Pigweed: 16 g ai/ha, 0 is no effect, 100 is complete control; for Pigweed plant response rating: 31 g ai/ha, 13 to 15 days; for Pigweed plant response rating / Plant response rating, Pigweed: scale 0 to 100 (0 no effect, 100 complete control)
Method in brief: as §1

wild oat = test: Test C postemergence; assay type: in vivo, Avena fatua; conditions: for Plant response rating (0 to 100), Oat, Wild: 16 g ai/ha, 0 is no effect, 100 is complete control; for Oat, Wild plant response rating: 31 g ai/ha, 13 to 15 days; for Oat, Wild plant response rating / Plant response rating, Oat, Wild: scale 0 to 100 (0 no effect, 100 complete control)
Method in brief: as §1

velvetleaf = test: Test C postemergence; assay type: in vivo, Abutilon theophrasti; conditions: for Plant response rating (0 to 100), Velvetleaf: 16 g ai/ha, 0 is no effect, 100 is complete control; for Velvetleaf plant response rating: 31 g ai/ha, 13 to 15 days; for Velvetleaf plant response rating / Plant response rating, Velvetleaf: scale 0 to 100 (0 no effect, 100 complete control)
Method in brief: as §1

sedge, umbrella = test: Test B flooded paddy test; assay type: in vivo, Cyperus difformis; conditions: Flood, 250 g ai/ha; 0 to 100 scale where 0 is no effect and 100 is complete control
Method in brief: (§2)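 Plants at 2-leaf stage; pots flooded to 3 cm above soil and compound applied directly into paddy water, depth held throughout. After 13 to 15 days in greenhouse, visual rating versus controls on 0 (no effect) to 100 (complete control) scale.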

barnyardgrass [3] = test: Test B flooded paddy test; assay type: in vivo, Echinochloa crus-galli; conditions: Flood, 250 g ai/ha; 0 to 100 scale where 0 is no effect and 100 is complete control
Method in brief: as §2

johnsongrass = test: Test C postemergence; assay type: in vivo, Sorghum halepense; conditions: for Plant response rating (0 to 100), Johnsongrass: 16 g ai/ha, 0 is no effect, 100 is complete control; for Johnsongrass plant response rating: 31 g ai/ha, 13 to 15 days; for Johnsongrass plant response rating / Plant response rating, Johnsongrass: scale 0 to 100 (0 no effect, 100 complete control)
Method in brief: as §1

yellow nutsedge = test: Test C postemergence; assay type: in vivo, Cyperus esculentus; conditions: for Plant response rating (0 to 100), Nutsedge, Yellow: 16 g ai/ha, 0 is no effect, 100 is complete control; for Nutsedge, Yellow plant response rating: 31 g ai/ha, 13 to 15 days; for Nutsedge, Yellow plant response rating / Plant response rating, Nutsedge, Yellow: scale 0 to 100 (0 no effect, 100 complete control)
Method in brief: as §1

[4] = 16 g ai/ha, scale 0 to 100 (0 no effect, 100 complete control)
[5] = 62 g ai/ha, scale 0 (no effect) to 100 (complete control)
[6] = 125 g ai/ha, scale 0 (no effect) to 100 (complete control)
[7] = 125 g ai/ha, postemergence, visual rating

## CCCOc1cnn(-c2c(C#N)cccc2Oc2ncc(Cl)cn2)c1 [Compound 150]
Giant foxtail; [4]
  Foxtail, Giant plant response rating: 5
Giant foxtail; [5]
  Foxtail, Giant plant response rating: 100
Giant foxtail; [6]
  Foxtail, Giant plant response rating: 100
Giant foxtail
  Plant response rating, Foxtail, Giant: 75
corn; [4]
  Corn plant response rating: 0
corn; [5]
  Corn plant response rating: 25
corn; [6]
  Corn plant response rating: 45
corn
  Plant response rating, Corn: 0
Barnyardgrass [1]; 125 g ai/ha, 0 to 100 scale where 0 is no effect and 100 is complete control
  Barnyardgrass plant response rating: 100
Barnyardgrass [2]; postemergence
  Plant response rating (0 to 100), Barnyardgrass: 5
Barnyardgrass [2]; postemergence, visual rating
  Barnyardgrass plant response rating: 5
Barnyardgrass [2]; [7]
  Plant response rating, Barnyardgrass: 5
Barnyardgrass [2]; Postemergence, 62 g ai/ha
  Plant response rating, Barnyardgrass: 5
waterhemp; postemergence
  Plant response rating (0 to 100), Waterhemp: 35
waterhemp; postemergence, visual rating
  Waterhemp plant response rating: 35
waterhemp; [7]
  Plant response rating, Waterhemp: 65
waterhemp; Postemergence, 62 g ai/ha
  Plant response rating, Waterhemp: 35
Italian ryegrass; postemergence
  Plant response rating (0 to 100), Ryegrass, Italian: 0
Italian ryegrass; postemergence, visual rating
  Ryegrass, Italian plant response rating: 0
Italian ryegrass; [7]
  Plant response rating, Ryegrass, Italian: 5
Italian ryegrass; Postemergence, 62 g ai/ha
  Plant response rating, Ryegrass, Italian: 5
pigweed; postemergence
  Plant response rating (0 to 100), Pigweed: 40
pigweed; postemergence, visual rating
  Pigweed plant response rating: 55
pigweed; [7]
  Plant response rating, Pigweed: 65
pigweed; Postemergence, 62 g ai/ha
  Plant response rating, Pigweed: 55
Wild oat; postemergence
  Plant response rating (0 to 100), Oat, Wild: 5
Wild oat; postemergence, visual rating
  Oat, Wild plant response rating: 5
Wild oat; [7]
  Plant response rating, Oat, Wild: 5
Wild oat; Postemergence, 62 g ai/ha
  Plant response rating, Oat, Wild: 5
velvetleaf; postemergence
  Plant response rating (0 to 100), Velvetleaf: 20
velvetleaf; postemergence, visual rating
  Velvetleaf plant response rating: 25
velvetleaf; [7]
  Plant response rating, Velvetleaf: 30
velvetleaf; Postemergence, 62 g ai/ha
  Plant response rating, Velvetleaf: 30
sedge, umbrella
  Plant response rating, Sedge, Umbrella: 85
Barnyardgrass [3]
  Plant response rating, Barnyardgrass: 0
johnsongrass; postemergence
  Plant response rating (0 to 100), Johnsongrass: 0
johnsongrass; postemergence, visual rating
  Johnsongrass plant response rating: 0
johnsongrass; [7]
  Plant response rating, Johnsongrass: 5
johnsongrass; Postemergence, 62 g ai/ha
  Plant response rating, Johnsongrass: 5
Yellow nutsedge; postemergence
  Plant response rating (0 to 100), Nutsedge, Yellow: 0
Yellow nutsedge; postemergence, visual rating
  Nutsedge, Yellow plant response rating: 0
Yellow nutsedge; [7]
  Plant response rating, Nutsedge, Yellow: 5
Yellow nutsedge; Postemergence, 62 g ai/ha
  Plant response rating, Nutsedge, Yellow: 15

## FCc1cn(-c2c(F)cccc2Oc2ncc(Cl)cn2)nn1 [Compound 154]
Giant foxtail; [4]
  Foxtail, Giant plant response rating: 5
Giant foxtail; [5]
  Foxtail, Giant plant response rating: 85
Giant foxtail; [6]
  Foxtail, Giant plant response rating: 100
Giant foxtail
  Plant response rating, Foxtail, Giant: 70
corn; [4]
  Corn plant response rating: 5
corn; [5]
  Corn plant response rating: 5
corn; [6]
  Corn plant response rating: 10
corn
  Plant response rating, Corn: 0
Barnyardgrass [1]; 1000 g ai/ha, 0 to 100 scale, 0 no effect, 100 complete control
  Plant response rating, Barnyardgrass: 100
Barnyardgrass [2]; postemergence
  Plant response rating (0 to 100), Barnyardgrass: 5
Barnyardgrass [2]; postemergence, visual rating
  Barnyardgrass plant response rating: 5
Barnyardgrass [2]; [7]
  Plant response rating, Barnyardgrass: 20
Barnyardgrass [2]; Postemergence, 62 g ai/ha
  Plant response rating, Barnyardgrass: 10
waterhemp; postemergence
  Plant response rating (0 to 100), Waterhemp: 5
waterhemp; postemergence, visual rating
  Waterhemp plant response rating: 60
waterhemp; [7]
  Plant response rating, Waterhemp: 70
waterhemp; Postemergence, 62 g ai/ha
  Plant response rating, Waterhemp: 65
Italian ryegrass; postemergence
  Plant response rating (0 to 100), Ryegrass, Italian: 0
Italian ryegrass; postemergence, visual rating
  Ryegrass, Italian plant response rating: 0
Italian ryegrass; [7]
  Plant response rating, Ryegrass, Italian: 0
Italian ryegrass; Postemergence, 62 g ai/ha
  Plant response rating, Ryegrass, Italian: 0
pigweed; postemergence
  Plant response rating (0 to 100), Pigweed: 25
pigweed; postemergence, visual rating
  Pigweed plant response rating: 30
pigweed; [7]
  Plant response rating, Pigweed: 75
pigweed; Postemergence, 62 g ai/ha
  Plant response rating, Pigweed: 60
Wild oat; postemergence
  Plant response rating (0 to 100), Oat, Wild: 0
Wild oat; postemergence, visual rating
  Oat, Wild plant response rating: 0
Wild oat; [7]
  Plant response rating, Oat, Wild: 0
Wild oat; Postemergence, 62 g ai/ha
  Plant response rating, Oat, Wild: 0
velvetleaf; postemergence
  Plant response rating (0 to 100), Velvetleaf: 25
velvetleaf; postemergence, visual rating
  Velvetleaf plant response rating: 45
velvetleaf; [7]
  Plant response rating, Velvetleaf: 80
velvetleaf; Postemergence, 62 g ai/ha
  Plant response rating, Velvetleaf: 70
sedge, umbrella
  Plant response rating, Sedge, Umbrella: 30
Barnyardgrass [3]
  Plant response rating, Barnyardgrass: 20
johnsongrass; postemergence
  Plant response rating (0 to 100), Johnsongrass: 0
johnsongrass; postemergence, visual rating
  Johnsongrass plant response rating: 0
johnsongrass; [7]
  Plant response rating, Johnsongrass: 5
johnsongrass; Postemergence, 62 g ai/ha
  Plant response rating, Johnsongrass: 0
Yellow nutsedge; postemergence
  Plant response rating (0 to 100), Nutsedge, Yellow: 5
Yellow nutsedge; postemergence, visual rating
  Nutsedge, Yellow plant response rating: 10
Yellow nutsedge; [7]
  Plant response rating, Nutsedge, Yellow: 10
Yellow nutsedge; Postemergence, 62 g ai/ha
  Plant response rating, Nutsedge, Yellow: 10
